US11186614B2, “Anti-HIV peptides” (priority 2016, dated 2021)
Entries after “also recorded” stand apart in the source; their conditions may differ.

B1: SUMO: Small Ubiquitin-like Modifier, a 12 kDa protein, fusion partner control (protein, UniProt Q12306 2-98, looked up)
Ubiquitin-like protein SMT3: SDSEVNQEAKPEVKPEVKPETHINLKVSDGSSEIFFKIKKTTPLRRLMEAFAKRQGKEMDSLRFLYDGIRIQADQTPEDLDMEDNDIIEAHREQIGG

Tests used:
[1] = tested on: HIV TAR; assay: ELISA RNA binding of SUMO fusion proteins, HIV TAR; set-up: species or system HIV-1
Description: (§1) FIG. 6A-B depicts SUMO-(GGS)3-β2-β3 and graphs of ELISA data. (A) Diagram of the SUMO-(GGS)3-β2-β3 hairpin loop of TBP6.7 fused to SUMO.
(§2) Protein engineering was used to test whether an isolated β2-β3 hairpin of TBP6.7 (FIG. 2) retains TAR binding. Specifically, a fusion protein was created comprising the TBP6.7 β2-β3 hairpin (FIG. 6A) linked by flexible, soluble spacer (GGS)3 to SUMO (Small Ubiquitin-like Modifier), a 12 kDa protein that expresses well in E. coli and stabilizes a variety of structurally diverse fusion proteins.^114 The affinity for TAR was then measured by ELISA (FIG. 6B).
(§3) To test for TAR binding by the isolated β2-β3 loop sequence, we first fused this short peptide to SUMO (Small Ubiquitin-like Modifier). […] Arg-to-Ala mutants were then tested.
(§4) SUMO is 12 kDa protein that expresses well in E. coli and stabilizes a variety of diverse fusion proteins. A β2-β3 loop peptide comprising the sequence L^41-to-F^59—or mutants thereof—was fused to a flexible GGS linker at the SUMO C-terminus, and RNA binding was measured by ELISA. […] Stapling was accomplished by inserting nucleophiles using L44C and F56C mutations. Following treatment with a reducing agent (DTT), chemical cyclization was achieved by SNAr conjugation using polyfluorinated biarylsulfoxide; β2-β3 loop peptides with R-to-A mutations were prepared similarly. […]

[2] = tested on: U1hpII; assay: SPR binding to U1hpII; conditions: FIG. 4D
Description: FIG. 4A-F depict the TBP evolution screen.

[3] = tested on: BIV TAR; assay: ELISA RNA binding of SUMO fusion proteins, BIV TAR; set-up: species or system Bovine immunodeficiency virus
Description: as §1, §2, §3, §4

[4] = tested on: U1hpII; assay: ELISA RNA binding of SUMO fusion proteins, U1hpII
Description: as §1, §2, §3, §4

[5] = tested on: TAR; conditions: FIG. 4D
Description: (A) Yeast display platform to identify U1A-derived proteins that bind TAR. […] (C) ELISA data depicting binding between evolved proteins and TAR. […] (E) Sequences of TAR mutants used to elucidate TBP6.6 and TBP 6.7 binding selectivity. (F) ELISA data showing relative affinities between TBP6.6 or TBP6.7.

Row | Molecule | ELISA binding to HIV TAR [1] | SPR recognition of U1hpII [2] | ELISA binding to BIV TAR [3] | ELISA binding to U1hpII [4] | SPR recognition of TAR [5]
1 | U1A: parental RRM protein, starting protein whose native target is U1hpII | did not interact with BIV or HIV TAR | tightly binds U1hpII | did not interact with BIV or HIV TAR | highest relative level of binding; also recorded: binds U1hpII | does not bind TAR
2 | B1 | does not have appreciable TAR binding; also recorded: no appreciable RNA binding; also recorded: does not bind |  | no appreciable RNA binding; also recorded: does not bind | no appreciable RNA binding; also recorded: does not bind | 
